Reference: patent US20110015080A1, “Solution-based methods for RNA expression profiling” (MASSACHUSETTS INSTITUTE OF TECHNOLOGY, priority 2005, published 2011)
“And” between values parts separate entries of the source, which are not always exact repeats. Equal values may be shown once.

Test system: HL60 (human promyelocytic leukemia) cells
Experiment: LMA-FlexMAP analysis of microtiter well cultures of HL60 cells treated with tretinoin or DMSO, KNN classification
[1] = HL60 cells treated with tretinoin, Experiment 3, replicate samples
[2] = HL60 microtiter plate wells tretinoin40-47 (replicates)

CC1=C(/C=C/C(C)=C/C=C/C(C)=C/C(=O)O)C(C)(C)CCC1 [tretinoin, all-trans-retinoic acid]
FlexMap signal, ACTB (LUA#91) [1]: 2538 and 2604.5 and 452 and 812 and 1191 and 2112.5 and 2760 and 2845 and 2391 and 144.5
FlexMap signal, GAPDH_3 (LUA#95) [1]: 2330.5 and 2534 and 579 and 1017 and 1438 and 2495.5 and 2680 and 2718 and 2148 and 172
FlexMap signal, GAPDH_5 (LUA#93) [1]: 1699 and 1739.5 and 261.5 and 439.5 and 741 and 1388 and 1787 and 1865 and 1714 and 97
FlexMap signal, GAPDH_M (LUA#94) [1]: 1342.5 and 1462 and 221.5 and 396 and 590.5 and 1179.5 and 1602 and 1586 and 1267.5 and 79
FlexMap signal, NM_000147 (LUA#29) [1]: 987 and 1072 and 95 and 188.5 and 323 and 713 and 1109 and 1156 and 905 and 43
FlexMap signal, NM_000211 (LUA#39) [1]: 1072 and 1160 and 204.5 and 356 and 501 and 939 and 1215 (2×) and 924.5 and 109
FlexMap signal, NM_000250 (LUA#87) [1]: 141 and 157 and 46 and 52 and 67 and 115 and 159 and 166 and 131 and 38
FlexMap signal, NM_000414 (LUA#22) [1]: 384 and 448 and 48 and 74 and 114 and 272.5 and 479 and 477.5 and 378 and 35
FlexMap signal, NM_000433 (LUA#28) [1]: 454 and 548 and 62 and 105 and 169 and 371.5 and 580.5 and 600.5 and 406 and 32
FlexMap signal, NM_000584 (LUA#30) [1]: 1878.5 and 1840 and 240 and 426 and 663 and 1369.5 and 1886 and 1908.5 and 1555 and 96.5
FlexMap signal, NM_000884 (LUA#81) [1]: 670 and 692 and 126 and 209 and 304 and 612 and 794.5 and 804 and 624 and 58
FlexMap signal, NM_001034 (LUA#67) [1]: 170 and 171 and 42 and 47 and 73 and 122 and 178 and 184 and 155 and 33
FlexMap signal, NM_001101 (LUA#34) [1]: 2622 and 2644 and 799 and 1279 and 1711 and 2759.5 and 2895 and 2880 and 2335 and 235
FlexMap signal, NM_001469 (LUA#79) [1]: 988.5 and 1104 and 141.5 and 246.5 and 395 and 731.5 and 1124 and 1134 and 921 and 75.5
FlexMap signal, NM_001498 (LUA#18) [1]: 397 and 391.5 and 40 and 71 and 121 and 262 and 386 and 382 and 279 and 30
FlexMap signal, NM_001684 (LUA#23) [1]: 52.5 and 60 (2×) and 30 and 31.5 and 31 and 52 and 66 and 49 and 25
FlexMap signal, NM_001948 (LUA#84) [1]: 63 and 62 and 34 and 38 (2×) and 50 and 61 and 59 and 54 and 33
FlexMap signal, NM_002166 (LUA#25) [1]: 169.5 and 207 and 37 and 51 and 74 and 132 and 188.5 and 211 and 170 and 29
FlexMap signal, NM_002467 (LUA#90) [1]: 571 and 552.5 and 136 and 162 and 239 and 409.5 and 576 and 644 and 527 and 86
FlexMap signal, NM_002468 (LUA#40) [1]: 367 and 421 and 57.5 and 93 and 132.5 and 303 and 450 and 473.5 and 357 and 36.5
FlexMap signal, NM_002539 (LUA#74) [1]: 276 and 278.5 and 46 and 74 and 209 and 271 and 323.5 and 225 and 36
FlexMap signal, NM_002624 (LUA#36) [1]: 1359 and 1343 and 253.5 and 500 and 700.5 and 1234 and 1402 and 1395 and 1167.5 and 79
FlexMap signal, NM_002664 (LUA#38) [1]: 1922 and 1934 and 383 and 702 and 1051.5 and 1832 and 2052 and 2064 and 1635.5 and 101
FlexMap signal, NM_002970 (LUA#42) [1]: 1316 and 1443 and 164 and 329 and 528 and 1106 and 1508 and 1570.5 and 1247 and 57
FlexMap signal, NM_002982 (LUA#45) [1]: 3449 and 3440 and 1175 and 1759 and 2328 and 3359 and 3548 and 3612.5 and 3101 and 373
FlexMap signal, NM_003132 (LUA#68) [1]: 431 and 428 and 74 and 117.5 and 194 and 367 and 461 and 482 and 344 and 38
FlexMap signal, NM_003172 (LUA#19) [1]: 208 and 227 and 45 and 68 and 97 and 199 and 234 and 250 and 179 and 33
FlexMap signal, NM_003332 (LUA#43) [1]: 2312 and 2346.5 and 591 and 1003 and 1446 and 2239 and 2492 and 2467 and 2041 and 177.5
FlexMap signal, NM_003581 (LUA#62) [1]: 40.5 and 39.5 and 40 (2×) and 36 and 42 and 47 and 46.5 and 46 and 33
FlexMap signal, NM_003644 (LUA#17) [1]: 181.5 and 53 and 72 and 75.5 and 220 and 238.5 and 179 and 39
FlexMap signal, NM_003752 (LUA#82) [1]: 116 and 113 and 54 (2×) and 66 and 93 and 105 and 123 and 96 and 41
FlexMap signal, NM_003879 (LUA#24) [1]: 65 and 69 and 23 and 29 and 36 and 51 and 77 and 76 and 59 and 34
FlexMap signal, NM_004079 (LUA#21) [1]: 113 and 124 (2×) and 34 and 41 and 53 and 88 and 122 and 121 and 30
FlexMap signal, NM_004095 (LUA#59) [1]: 169 and 205 and 46 and 66 and 86.5 and 166.5 and 221 and 208.5 and 147 and 36
FlexMap signal, NM_004106 (LUA#44) [1]: 1458 and 1423 and 235 and 457 and 672 and 1276 and 1500 and 1506 and 1234 and 68
FlexMap signal, NM_004134 (LUA#76) [1]: 268 and 286 and 47.5 and 67 and 93 and 182 and 284 and 297 and 240 and 36
FlexMap signal, NM_004152 (LUA#31) [1]: 1845 and 1993 and 319 and 601 and 837 and 1645 and 2020 and 2157.5 and 1685 and 90.5
FlexMap signal, NM_004526 (LUA#88) [1]: 153.5 and 172 and 43 and 61 and 76.5 and 187.5 and 191 and 138 and 37
FlexMap signal, NM_004602 (LUA#32) [1]: 255 and 274.5 and 61 and 87.5 and 116 and 185 and 270 and 293 and 288 and 46
FlexMap signal, NM_004723 (LUA#20) [1]: 281 and 329 and 61 and 105 and 151 and 271.5 and 350 and 352 and 258 and 37
FlexMap signal, NM_004741 (LUA#89) [1]: 397 and 326 and 70 and 77 and 131 and 204.5 and 315 and 415.5 and 300.5 and 58
FlexMap signal, NM_004759 (LUA#37) [1]: 242 and 139.5 and 32 and 41 and 60 and 119 and 132.5 and 213 and 159 and 28
FlexMap signal, NM_005008 (LUA#77) [1]: 242 and 301.5 and 53.5 and 87 and 114 and 239.5 and 315 and 316 and 232 and 41
FlexMap signal, NM_005375 (LUA#86) [1]: 548 and 553 and 131 and 196 and 334 and 547.5 and 602 and 531 and 86
FlexMap signal, NM_005566 (LUA#85) [1]: 539.5 and 610.5 and 89 and 117 and 183 and 197.5 and 597 and 632 and 489 and 45
FlexMap signal, NM_005914 (LUA#60) [1]: 525.5 and 804.5 and 102 and 218.5 and 314 and 594 and 914 and 889 and 716.5 and 44
FlexMap signal, NM_005915 (LUA#72) [1]: 46 and 42 and 25 and 27 and 30 and 35 and 40 and 37 and 38 and 29
FlexMap signal, NM_005952 (LUA#66) [1]: 204 and 199 and 43 and 56 and 74 and 143 and 200 and 197.5 and 156 and 34
FlexMap signal, NM_005980 (LUA#73) [1]: 160 and 157 (2×) and 32 and 43 and 52 and 102.5 and 166 and 132 and 34
FlexMap signal, NM_006019 (LUA#35) [1]: 810 and 792 and 73 and 140 and 227 and 497 and 747 and 787.5 and 655 and 34
FlexMap signal, NM_006138 (LUA#56) [1]: 87 and 95 and 37 and 40 and 49 and 67 and 97 and 102.5 and 86 and 38
FlexMap signal, NM_006432 (LUA#27) [1]: 1364 and 1394 and 190 and 358.5 and 574 and 1118 and 1397.5 and 1403 and 1160 and 68
FlexMap signal, NM_006452 (LUA#71) [1]: 52 and 60 and 25 and 37 and 37.5 and 43 and 57 and 71 and 44 and 23.5
FlexMap signal, NM_006985 (LUA#58) [1]: 48 and 59 (2×) and 31 and 32 and 37.5 and 45.5 and 52 and 46.5 and 30
FlexMap signal, NM_007282 (LUA#16) [1]: 46 and 62.5 and 27 and 29 and 30 and 42 and 53 and 61.5 and 58 and 28
FlexMap signal, NM_014333 (LUA#26) [1]: 613 and 656.5 and 74 and 128 and 211 and 427 and 674 and 705 and 572 and 41
FlexMap signal, NM_014366 (LUA#61) [1]: 217 and 294 and 38 and 61 and 89.5 and 191 and 291.5 and 299.5 and 235 and 33.5
FlexMap signal, NM_014573 (LUA#70) [1]: 138.5 and 144.5 and 40 and 45 and 56 and 93 and 156 and 161.5 and 123 and 38.5
FlexMap signal, NM_015201 (LUA#57) [1]: 208 and 198 and 40 and 49 and 64 and 139 and 197 and 228 and 156 and 31
FlexMap signal, NM_018115 (LUA#63) [1]: 1217 and 860.5 and 109.5 and 234 and 409 and 710.5 and 896 and 1206.5 and 927 and 61
FlexMap signal, NM_018164 (LUA#69) [1]: 148.5 and 149 and 37 and 46 and 67 and 139 and 150 and 156.5 and 133 and 36
FlexMap signal, NM_018256 (LUA#83) [1]: 638.5 and 688.5 and 178.5 and 177 and 268 and 371 and 633 and 804.5 and 779 and 151
FlexMap signal, NM_018890 (LUA#33) [1]: 737 and 769 and 82 and 151.5 and 240 and 534.5 and 760 and 762 and 652 and 41
FlexMap signal, NM_019058 (LUA#75) [1]: 102 and 129 and 37 and 48 and 56 and 90 and 126 and 97 and 34
FlexMap signal, NM_020117 (LUA#78) [1]: 487 and 502 and 65 and 114 and 184 and 371 and 519 and 543 and 415 and 45
FlexMap signal, NM_021103 (LUA#41) [1]: 629 and 2096 and 467.5 and 781.5 and 992 and 1953 and 2465.5 and 2408 and 495 and 142
FlexMap signal, NM_021203 (LUA#80) [1]: 445.5 and 471 and 65 and 109 and 165 and 355 and 480 and 514 and 369 and 46
FlexMap signal, NM_021974 (LUA#64) [1]: 776 and 891 and 136.5 and 255.5 and 403 and 781.5 and 929 and 940 and 667.5 and 55
FlexMap signal, NM_024045 (LUA#65) [1]: 112 and 127.5 and 35 and 40 and 57 and 92.5 and 135.5 and 110 and 29
FlexMap signal, TFRC (LUA#92) [1]: 252 and 255 and 54 and 66 and 90 and 168 and 256 and 272 and 213 and 45
ACTB LUA#91 FlexMap level [2]: 344 and 2113 and 2976 and 3020 and 2200 and 2601 and 2521 and 1195
GAPDH_3 LUA#95 FlexMap level [2]: 1659 and 3754 and 4065 and 4240 and 3880 and 3379 and 3353.5 and 1707.5
GAPDH_5 LUA#93 FlexMap level [2]: 238 and 1501 and 2205.5 and 2064 and 1482 and 1768.5 and 1737 and 843
GAPDH_M LUA#94 FlexMap level [2]: 642 and 3318 and 3783.5 and 3886 and 3205 and 3303 and 3248 and 1513
NM_000070 LUA#2 FlexMap level [2]: 84.5 and 400 and 756 and 769.5 and 717.5 and 638.5 and 741 and 490.5
NM_000147 LUA#29 FlexMap level [2]: 48 and 184 and 276.5 and 330.5 and 274 and 275 and 318 and 288
NM_000153 LUA#10 FlexMap level [2]: 35 and 90 and 138 (2×) and 150 and 120 and 171.5 and 223
NM_000211 LUA#39 FlexMap level [2]: 81 and 598.5 and 1229 and 1162.5 and 868 and 1061 and 973 and 440.5
NM_000250 LUA#87 FlexMap level [2]: 261.5 and 1504 and 2135 and 2243 and 1820 and 2094 and 1863 and 1124
NM_000414 LUA#22 FlexMap level [2]: 79.5 and 477 and 902 and 920 and 503 and 800 and 838 and 646
NM_000433 LUA#28 FlexMap level [2]: 53 and 234 and 451.5 and 466 and 318 and 421 and 370.5 and 244.5
NM_000584 LUA#30 FlexMap level [2]: 45 and 189 and 470 and 461 and 435 and 379 and 597 and 352
NM_000632 LUA#12 FlexMap level [2]: 60 and 298 and 544 and 994 and 932 and 486 and 500 and 525.5
